System: ArBNR2(G272)
Experiment: Luminescence (GFP-aequorin Ca2+) assay, CHO-K1 cells coexpressing ArBNR2(G272) and Gqs5
Format: cell-based, Asterias rubens
Conditions: words, up to 10^-5 M
Description: Having identified ArBN and ArBN5-14 as peptides that are naturally derived from ArBNP in A. rubens, we then sought to identify receptors that these peptides may act as ligands for. BLAST analysis of transcriptome/genome data identified eleven candidate BN-type receptors, which we refer to as ArBNR1-11. Homologs of this family of proteins were also identified in other echinoderms. […] Accordingly, a modified form of ArBNR2 in which the glutamate residue at position 272 is substituted with glycine, ArBNR2(G272), also has seven predicted transmembrane domains (SI Appendix, SI Methods). […]
domains and other structural features (9). The topology of […] of the potential A. rubens BN-type receptors as predicted by Protter V1.0 comprised seven transmembrane domains, as expected for a GPCR. However, the topology of the proteins encoded by contig 1110162 and contig 1110464 comprised only six and four transmembrane domains, respectively. Analysis of the transcript […]
To determine the complete open reading frame of ArBNR2, contig 1110162 was used as a query for blastx analysis of A. rubens genome sequence data on NCBI and accession no. […] The protein (XP_033631283.1 referred to henceforth as ArBNR2) was analysed using […]
Having discovered that MgBNR2 has the expected topology for a GPCR when analysed using both Protter and DeepTMHMM, we then compared its sequence to ArBNR2. […]

| Substance | peptide-induced luminescence |
| --- | --- |
| EPMPSSLALYIANLSP-NH2 [ArBNP65-81, C-terminally amidated 16-residue peptide predicted to be derived from residues 65 to 81 of ArBNP] | did not trigger luminescence |
| NYNRVFGPTY-NH2 [ArBN5-14, C-terminally amidated 10-residue peptide corresponding to the C-terminal region of ArBN] | did not trigger luminescence |

— paper PMC12002301, “Discovery and functional characterization of a bombesin-type neuropeptide signaling system in an invertebrate” (Proceedings of the National Academy of Sciences of the …, 2025)
